In patent US9428819B1, “Method for synthesizing noble metal nanoparticles using dead cancer cells” (KING SAUD UNIVERSITY, priority 2016, dated 2016):

Tests used:
Experiment in all cases: Antimicrobial activity, diffusion Agar technique
Format in all cases: cell-based
Details in all cases: beyond the initial well diameter of 6 mm
[1] = test system: Escherichia coli (RCMB 010054)
Procedure: (§1) The noble metal nanoparticles prepared by the present methods can be formulated into a composition effective as an antifungal and as an antibacterial agent (Gram positive and gram negative). […] The fungal and bacterial inhibition trial was conducted using the diffusion Agar technique. The data are expressed in the form of (M±S.D.): mean±standard deviation; wherein M represents the diameter of the inhibition zone, measured in millimeters (mm) beyond the initial well diameter of 6 mm.

[2] = test system: Streptococcus pneumoniae (RCMB 010011)
Procedure: as §1

[3] = test system: Bacillis subtilis (RCMB 010068)
Procedure: as §1

[4] = test system: Aspergillus fumigatus (RCMB 02567)
Procedure: as §1

Molecule: Gentamicin
- diameter of the inhibition zone (mean ± S.D.) [1]: 20.3 ± 0.58 mm

Molecule: CC1(C)S[C@@H]2[C@H](NC(=O)[C@H](N)c3ccccc3)C(=O)N2[C@H]1C(=O)O [Ampicillin]
- diameter of the inhibition zone (mean ± S.D.) [2]: 21.0 ± 1.0 mm
- diameter of the inhibition zone (mean ± S.D.) [3]: 31.3 ± 1.5 mm

Molecule: C[C@@H]1[C@H](O)[C@@H](C)/C=C/C=C/C=C/C=C/C=C/C=C/C=C/[C@H](O[C@@H]2O[C@H](C)[C@@H](O)[C@H](N)[C@@H]2O)C[C@@H]2O[C@](O)(C[C@@H](O)C[C@@H](O)[C@H](O)CC[C@@H](O)C[C@@H](O)CC(=O)O[C@H]1C)C[C@H](O)[C@H]2C(=O)O [Amphotericin B]
- diameter of the inhibition zone (mean ± S.D.) [4]: 21.7 ± 1.5 mm
